≈ marks a conversion by molar mass, not a printed value. Where two headings read alike, the source gives them in different places. A value given as a limit tells only on which side of the number the result lay.

The results in this text go back to US5214053A, “Thiourea derivatives and antimicrobial agent and antiulcer agent containing the same” (Terumo Kabushiki Kaisha, priority 1991, dated 1993).

The test system of one test is ethanol peptic ulcer. Nature of the test: Inhibitory action against ethanol peptic ulcer. In kind it is in vivo, SD male rats. Conditions: Rattus norvegicus, read-out: Inhibitory action against ethanol peptic ulcer, percent inhibition of peptic ulcer formation. As for the experimental part:
Inhibitory Action Against Ethanol Peptic Ulcer
SD male rats (weighing 200-300 g) were fasted for 24 hours before oral administration of a thiourea derivative of the invention at a dose of 32 mg/kg bodyweight. One hour later, ethanol was orally given in a volume of 0.5 ml/100 g bodyweight. One hour after administering ethanol, the rat was sacrificed with ether, and the stomach was excised and treated with formalin. Area (mm^2) of the lesions developed in the glandular stomach area was then measured. Results were expressed in sum of the lesions per animal which was referred to as peptic ulcer index.
Percent inhibition of the peptic ulcer formation (%) as shown in the table was calculated according to the same equation as mentioned above.

For the next test, the system named is Helicobacter pylori. Nature of the test: Antimicrobial activity against Helicobacter pylori (MIC). In kind it is cell-based, Helicobacter pylori strain NCTC 11916. As for the experimental part: Antimicrobial Activity Against Helicobacter Pylori
Antimicorbial activity of the thiourea derivatives according to the invention against Helicobacter pylori (or Campylobacter pylori) was evaluated by employing strain NCTC 11916 as a Helicobacter test organism and determining MIC (minimum inhibitory concentration) of the thiourea derivative against Helicobacter pylori.
The Helicobacter pylori was pre-incubated in a plate medium for 3-5 days. […] These antibiotics were contained for inhibition of the growth of microorganisms with than Helicobacter pylori.
The Helicobacter pylori pre-incubated under slightly aerobic conditions (an O2 concentration of about 5%) at 37° C. for 3-5 days was suspended in a physiological saline solution in a concentration of approximately 10^8 organisms/ml. Approximately 10-20 μl of the suspension was inoculated on a medium for MIC measurement in cross streaks. […] The DMSO solution was formed by the twofold dilution method using sterilized distilled water. As in the pre-incubation, the Helicobacter pylori was cultured under slightly aerobic conditions at 37° C. for 3-5 days. After completion of the culture, growth of the microorganisms on the streaks was visually determined. […] The MIC of cemetidine, an antagonist to histamine was also measured for comparison.

Test [1] concerns peptic ulcer induced by water immersion restrain stress. Nature of the test: Inhibitory action against peptic ulcer induced by water immersion restrain stress. In kind it is in vivo, SD male rats. Particulars: Rattus norvegicus, read-out: Inhibitory action against stress peptic ulcer, percent inhibition of peptic ulcer formation. The method, then:
Inhibitory Action Against Peptic Ulcer Induced By Water Immersion Restrain Stress
SD male rats (weighing 200-300 g) were fasted for 24 hours before oral administration of a thiourea derivative of the invention at a dose of 32 mg/kg bodyweight. One hour later, the animal was put in a stress cage and loaded with water immersion restraint stress in a water bath at 23° C.
Seven hours after loading with the stress, the rat was sacrificed with ether, and the stomach was excised and treated with formalin. Area (mm^2) of the lesions developed in the glandular stomach area was then measured. Results were expressed in sum of the lesions per animal which was referred to as peptic ulcer index.
Percent inhibition of the peptic ulcer formation (%) as shown in the table was calculated according to the following equation: [formula]

[2] abbreviates: SD male rats, oral, 32 mg/kg, 1 hour before ethanol (0.5 ml/100 g), lesions measured 1 hour after ethanol.
[3] abbreviates: NCTC11916, strain NCTC 11916, Mueller-Hinton agar with horse hemolysis solution, 37° C., 3-5 days, slightly aerobic (O2 about 5%), read-out: Antimicrobial activity against Helicobacter pylori, MIC (minimum inhibitory concentration).
The mark [4] stands for this setting: SD male rats, oral, 32 mg/kg, 1 hour before stress, lesions measured 7 hours after loading with the stress.

Consider `CNC(=NC#N)NCCSCc1nc[nH]c1C` [Cemetidine, reference compound], for which the inhibition in vivo at 32 mg/kg worked out at 16% in the test on ethanol peptic ulcer (po, 1 h) and 64% in test [1] (po, 7 h). Moreover, the MIC in the test on Helicobacter pylori (NCTC11916, read-out: Antimicrobial activity against Helicobacter pylori, MIC (minimum inhibitory concentration)) was ≥ 400 mg/L.
Regarding `O=C(CCCNC(=S)Nc1ccc2c(c1)OCO2)NCCCOc1cccc(CN2CCCCC2)c1` [Example 1, 1-[3-[N-[3-[3(piperidinomethyl)phenoxy]propyl]carbamoyl]propyl]-3-[(3,4methylenedioxy)phenyl] thiourea], the inhibition in vivo at 32 mg/kg in the test with ethanol peptic ulcer (setting [2]) stood at 67%; in test [1] (setting [4]), 80%. The MIC with Helicobacter pylori (setting [3]) worked out at 6.25 mg/L (≈ 12.2 µM).
As for `O=C(CCCNC(=S)Nc1ccc2c(c1)OCCO2)NCCCOc1cccc(CN2CCCCC2)c1` [Example 2, 1-[3-[N-[3-[3-(piperidinomethy)phenoxy]propyl]carbamoyl]propyl]-3-[(3,4-ethylenedioxy)phenyl]thiourea], the inhibition in vivo at 32 mg/kg was found to be 66% in the test with ethanol peptic ulcer (setting [2]) and 76% in test [1] (setting [4]). In the test on Helicobacter pylori (setting [3]), the MIC was found to be 6.25 mg/L (≈ 11.9 µM).
On the same counts, the results for `O=C(CCCNC(=S)Nc1ccc2c(c1)OCO2)NCCCOc1cccc(CN2CCCC2)c1` [Example 3, 1-[3-[N-[3-[3-(pyrrolidinomethyl)phenoxy]propyl]carbamoyl]propyl]-3-[(3,4-methylenedioxy)phenyl]-thiourea] are 61%, 68% and 6.25 mg/L (≈ 12.5 µM).
Take `CC1CCCN(Cc2cccc(OCCCNC(=O)CCCNC(=S)Nc3ccc4c(c3)OCO4)c2)C1` (stereo not drawn) [Example 4, 1-[3-[N-[3-[3((3-methylpiperidino)methyl)phenoxy]propyl]carbamoyl]propyl]-3-[(3,4-methylenedioxy)phenyl]thiourea]: the inhibition in vivo at 32 mg/kg with ethanol peptic ulcer (setting [2]) was 71%; in test [1] (setting [4]), 77%. In the test with Helicobacter pylori (setting [3]), the MIC amounted to 6.25 mg/L (≈ 11.9 µM).
For `CCN(CC)Cc1cccc(OCCCNC(=O)CCCNC(=S)Nc2ccc3c(c2)OCO3)c1` [Example 5, 1-[3-[N-[3-[3-(diethylaminomethyl)phenoxy]propyl]carbamoyl]propyl]-3-[(3,4-methylenedioxy)phenyl]thiourea] the same measures were 52%, 62% and 12.5 mg/L (≈ 25 µM).
On the same counts, the results for `O=C(CCCCCNC(=S)Nc1ccc2c(c1)OCO2)NCCCOc1cccc(CN2CCCCC2)c1` [Example 6] are 70%, 65% and 6.25 mg/L (≈ 11.6 µM).
Take `O=C(CCCNC(=S)Nc1ccc2c(c1)OCO2)NCCCOc1cc(CN2CCCCC2)ccn1` [Example 7]: the inhibition in vivo at 32 mg/kg with ethanol peptic ulcer (setting [2]) came out at 63%; in test [1] (setting [4]) it was 78%. For the same compound, in the test on Helicobacter pylori (setting [3]), the MIC came out at 6.25 mg/L (≈ 12.2 µM).
On the same counts, the results for `O=C(CCCNC(=S)NCc1ccc2c(c1)OCO2)NCCCOc1cccc(CN2CCCCC2)c1` [Example 8] are 78%, 82% and 6.25 mg/L (≈ 11.9 µM).
